For 10 compounds, MIC and IC50 results are on record in patent publication US20210371413A1, “POLYCYCLIC AMIDES AS CYTOTOXIC AGENTS” (FEMTOGENIX LIMITED, priority 2018, published 2021).

In brackets after ≈: the same amount, converted by molar mass. Read-outs that look alike come from different tables or passages of the source. A value given as a limit tells only on which side of the number the result lay.

What all share (assay type): cell-based
The subject of assay [1] is Klebsiella pneumoniae KP4631. Kind of assay: MIC assay, Klebsiella pneumoniae KP4631. As for the experimental part:
(§1) The antimicrobial activity of a selection of compounds were evaluated in a Gram-negative, Gram-positive and multi-resistant bacteria using the standard minimum inhibitory concentration (MIC) assay for an overnight (16-20 hour) incubation period. Commercially marketed antibiotics (Table 3) were used as positive controls during the study.
(§2) Mueller-Hinton broth (MH Broth) (Sigma-Aldrich; Millipore, cat. no. 70192) and Mueller-Hinton agar (MHA) (Sigma-Aldrich; Millipore, cat. no. 70191) were prepared as per manufacturer's instructions and sterilized by autoclaving. Approximately 20 mL of MHA was poured onto 15×100 mm petri dishes and allowed to set. Agar plates were then stored in plastic bags in an inverted position at 4° C.
(§3) Bacterial strains were provided in the form of a glycerol stock, stored at −80° C. For the purpose of preparation of bacterial suspension, appropriate strains were removed from −80° C. storage onto dry ice and not allowed to freeze-thaw.
(§4) Stock solutions of 16, 45 and 73 were provided in DMSO at 1.28 mg/mL concentration. From this stock solution, working solutions of the desired concentration were prepared by diluting with MHB.
(§5) MIC assay methodology was adapted from previously published work.
(§6) Bacterial isolate to be tested was streaked onto a nutrient-rich MH agar plate and incubated overnight at 37° C. in order to obtain single colonies.
(§7) After overnight incubation, single colonies with the same morphological appearance were chosen from the agar plate. These were touched using a sterile loop and transferred into a tube containing 10 mL of a MH broth. They were then mixed using vortex mixer and incubated at 35-37° C. in a shaker at 200 r.p.m. overnight.
(§8) Determination of OD600 and cfu/mL count OD600 (the optical density of a sample measured at a wavelength of 600 nm) of the overnight culture was measured. Because of the loss of linearity at OD600 values […], it was necessary to dilute the sample until the OD600 value was below 1.0. For all tested bacteria, a dilution of 1:10 was appropriate (100 μL in 900 μL broth).
(§9) The overnight culture was then diluted 1:100 using sterile tubes and MH broth (dilution: 10^−2). Serial dilution was then performed six times until dilution of 10^−8 was reached. 100 μL of dilutions 10^−7 and 10^−8 were plated onto MH agar plates in triplicate using a sterile cell spreader and incubated overnight at 37° C.
(§10) After overnight incubation, colonies on plates were counted and cfu per mL calculated. The following formula was applied: […]
(§11) After overnight incubation, the OD600 was measured and the overnight culture was diluted accordingly to obtain 1×10^8 cfu/mL. […]
(§12) The 96-well plates were read using a SpectraMax plate reader at an absorbance of 600 nm. […]

Assay [2] concerns E. coli K12. Nature of the assay: MIC assay, E. coli K12. The following applies: Escherichia coli, K12, E. coli K12 (Gram-negative), overnight (16-20 hour) incubation. On the procedure:
as §1, §2, §3, §4, §5, §6, §7, §8, §9, §10
For the generation of overnight cultures to be used for preparation of the bacterial suspension for MIC tests, a single colony of bacteria was selected using a sterile loop and a sterile tube with MH broth was inoculated followed by overnight incubation at […] in a shaker set to 200 r.p.m.
After overnight incubation, the OD600 was measured and the overnight culture was diluted accordingly to obtain 1×10^8 cfu/mL.
Free payload dilutions were prepared as per Table 4.
96-well sterile microtiter plates were used for MIC assay. The plate was filled with the respective free payload or positive control antibiotic concentrations in triplicate. 100 μL of broth was pipetted in the sterility control well (SC, column 12) and 50 μL in the growth control well (GC, column 11).
1×10^8 cfu/mL bacterial suspension was diluted 1:100 and 50 μL added to each well apart from SC. […]
as §12

The subject of assay [3] is EMRSA 16. Nature of the assay: MIC assay, EMRSA 16. To be noted: Staphylococcus aureus. On the procedure:
as §1, §2, §3, §4, §5, §6, §7, §8, §9, §10, §11, §12

Assay [4] concerns U138-MG (Glioblastoma). Kind of assay: In vitro cytotoxicity, MTT assay, U138-MG. The following applies: Homo sapiens, read-out: Cytotoxicity. On the procedure:
(§13) The in vitro cytotoxicity of a selection of compounds were evaluated in a panel of cell lines using the standard MTT assay for a 72 hour incubation period (Table 2). Free payloads produced cytotoxicities in the nanomolar range.
(§14) Tumor cell lines were maintained in RPMI1640 medium supplemented with 10% heat-inactivated fetal bovine serum, 2 mM L-glutamine and 1 mM sodium pyruvate. 1800 cells per well were seeded in a volume of 180 μl in a 96-well flat bottom polystyrene plate. The cells were allowed to adhere overnight at 37° C. in a CO2 incubator. Ligands were initially formulated in DMSO, and stocks stored at −80° C. They were then further formulated at lox concentration in RPMI1640 medium. 20 ul of diluted samples were added into each treatment well. On each plate, blank wells with no cells, and untreated wells containing cells, were included. Plates were then cultured at 37° C. in a CO2 incubator for 72 hrs. Cytotoxicity was evaluated using a tetrazolium salt-based assay, the MTT assay. After 72 hours, the supernatant was removed from each well and 200 μl of a sterile filtered 500 μg/ml MTT solution in water added to each well. The plates were then incubated at 37° C. in a CO2 incubator for 4 hrs. The supernatant was then removed and the formazan crystals formed solubilized by adding 150 μl of DMSO to each well. The plate was then read on a plate reader at 540 nm, and percentage cell survival calculated as follows: ((mean absorbance treated wells at concentration x−mean absorbance blank wells)+(mean absorbance untreated wells at concentration x−mean absorbance blank wells))×100. Data were plotted as concentration in nM vs. % cell survival in Microsoft Excel, and IC50 values (concentration where cell survival is reduced by a half) were determined from the graph.

For assay [5], the system named is REH (ALL). Kind of assay: In vitro cytotoxicity, MTT assay, REH. The following applies: read-out: Cytotoxicity. On the procedure:
as §13, §14

The subject of assay [6] is A431 (Skin). Nature of the assay: In vitro cytotoxicity, MTT assay, A431. The following applies: Homo sapiens, read-out: Cytotoxicity. As for the experimental part: as §13, §14
[7] abbreviates: U138-MG (Glioblastoma), MTT, 72 hour incubation.
[8] abbreviates: REH (ALL), MTT, 72 hour incubation.
Where [9] appears, read: A-431, A431 (Skin), MTT, 72 hour incubation.

As for `COC(=O)c1cc(-c2ccc(NC(=O)c3cc(NC(=O)CCCOc4cc5c(cc4OC)C(=O)N4CCCC[C@H]4CN5)cn3C)cc2)cn1C` [Compound 45, Methyl (S)-4-(4-(4-(4-((2-methoxy-12-oxo-5,6,6a,7,8,9,10,12-octahydrobenzo[e]pyrido[1,2-a][1,4]diazepin-3-yl)oxy)butanamido)-1-methyl-1H-pyrrole-2-carboxamido)phenyl)-1-methyl-1H-pyrrole-2-carboxylate], the MIC in assay [1] (Klebsiella pneumoniae, KP4631) is more than 128 µg/mL; in assay [2] it was more than 128 µg/mL; in assay [3], 0.5 µg/mL (≈ 0.732 µM).
As to `COC(=O)c1nc2cc(NC(=O)c3nc(NC(=O)CCCOc4cc5c(cc4OC)C(=O)N4CCCC[C@H]4CN5)cn3C)ccc2o1` [Compound 61, Methyl (S)-5-(4-(4-((2-methoxy-12-oxo-5,6,6a,7,8,9,10,12-octahydrobenzo[e]pyrido[1,2-a][1,4]diazepin-3-yl)oxy)butanamido)-1-methyl-1H-imidazole-2-carboxamido)benzo[d]oxazole-2-carboxylate], the IC50 in assay [4] (setting [7]), in assay [5] (setting [8]) and in assay [6] (setting [9]) was more than 1000 nM in each case.
For `COc1cc2c(cc1OCCCC(=O)Nc1cc(C(=O)Nc3ccc(-c4cc(C(=O)Nc5ccccc5)n(C)c4)cc3)n(C)c1)NC[C@@H]1CCCCN1C2=O` [Compound 67, (S)-4-(4-((2-Methoxy-12-oxo-5,6,6a,7,8,9,10,12-octahydrobenzo[e]pyrido-[1,2-a][1,4]diazepin-3-yl)oxy)butanamido)-1-methyl-N-(4-(1-methyl-5-(phenylcarbamoyl)-1H-pyrrol-3-yl)phenyl)-1H-pyrrole-2-carboxamide], the IC50 in assay [4] (U138-MG, 72 h) is 57.2 nM; in assay [5] (72 h) it was 29.4 nM; in assay [6] (A-431, 72 h), 25.9 nM.
Regarding `COc1cc2c(cc1OCCCC(=O)Nc1cc(C(=O)Nc3ccc(-c4cc(C(=O)Nc5ccc(NC(C)=O)cc5)n(C)c4)cc3)n(C)c1)NC[C@@H]1CCCCN1C2=O` [Compound 70, (S)—N-(4-Acetamidophenyl)-4-(4-(4-(4-((2-methoxy-12-oxo-5,6,6a,7,8,9,10, 12-octahydrobenzo[e]pyrido[1,2-a][1,4]diazepin-3-yl)oxy)butanamido)-1-methyl-1H-pyrrole-2-carboxamido)phenyl)-1-methyl-1H-pyrrole-2-carboxamide], the IC50 in assay [4] (setting [7]) is 93.6 nM; in assay [5] (setting [8]), 42.5 nM; in assay [6] (setting [9]), 11.3 nM.
`COc1cc2c(cc1OCCCC(=O)Nc1cc(C(=O)Nc3ccc(-c4cc(C(=O)Nc5ccc(N)cc5)n(C)c4)cc3)n(C)c1)NC[C@@H]1Cc3ccccc3N1C2=O` [Compound 106, (S)—N-(4-Aminophenyl)-4-(4-(4-(4-((8-methoxy-6-oxo-11,12,12a,13-tetrahydro-6H-benzo[5,6][1,4]diazepino[1,2-a]indol-9-yl)oxy)butanamido)-1-methyl-1H-pyrrole-2-carboxamido)phenyl)-1-methyl-1H-pyrrole-2-carboxamide]: the figures for the IC50 in assay [4] (setting [7]), in assay [5] (setting [8]) and in assay [6] (setting [9]) were 84 nM, 24 nM and 26.7 nM, respectively.
Turning to `COc1cc2c(cc1OCCCC(=O)Nc1cc(C(=O)Nc3ccc(-c4cc(C(=O)Nc5ccc(N)cc5)n(C)c4)cc3)n(C)c1)NC[C@@H]1Cc3ccccc3CN1C2=O` [Compound 119, (S)—N-(4-Aminophenyl)-4-(4-(4-(4-((2-methoxy-14-oxo-5,6,6a,7,12,14-hexahydrobenzo[5,6][1,4]diazepino[1,2-b]isoquinolin-3-yl)oxy)butanamido)-1-methyl-1H-pyrrole-2-carboxamido)phenyl)-1-methyl-1H-pyrrole-2-carboxamide], the IC50 in assay [4] (setting [7]) amounted to 266 nM; in assay [5] (setting [8]), 173 nM; in assay [6] (setting [9]), 43.1 nM.
For `COC(=O)c1cc(-c2ccc(NC(=O)c3cc(NC(=O)CCCOc4cc5c(cc4OC)C(=O)N4Cc6ccccc6C[C@H]4CN5)cn3C)cc2)cn1C` [Compound 121, Methyl (S)-4-(4-(4-(4-((2-methoxy-14-oxo-5,6,6a,7,12,14-hexahydrobenzo-[5,6][1,4]diazepino[1,2-b]isoquinolin-3-yl)oxy)butanamido)-1-methyl-1H-pyrrole-2-carboxamido)phenyl)-1-methyl-1H-pyrrole-2-carboxylate], the IC50 in assay [4] (setting [7]) was determined as 43.8 nM; in assay [5] (setting [8]), 11.6 nM; in assay [6] (setting [9]), 13.4 nM.
On to `NC[C@H]1O[C@H](O[C@H]2[C@H](O)[C@@H](O[C@H]3O[C@H](CO)[C@@H](O)[C@H](N)[C@H]3O)[C@H](N)C[C@@H]2N)[C@H](O)[C@@H](O)[C@@H]1O` [Kanamycin, reference compound], for which the MIC in assay [2] (read-out: MIC) lay within 2 to 4 µg/mL (≈ 4.13 to 8.26 µM).
With `CN[C@H](CC(C)C)C(=O)N[C@H]1C(=O)N[C@@H](CC(N)=O)C(=O)N[C@H]2C(=O)N[C@H]3C(=O)N[C@H](C(=O)N[C@H](C(=O)O)c4cc(O)cc(O)c4-c4cc3ccc4O)[C@H](O)c3ccc(c(Cl)c3)Oc3cc2cc(c3O[C@@H]2O[C@H](CO)[C@@H](O)[C@H](O)[C@H]2O[C@H]2C[C@](C)(N)[C@H](O)[C@H](C)O2)Oc2ccc(cc2Cl)[C@H]1O` [Vancomycin, reference compound], the MIC in assay [3] (EMRSA 16 (Gram-positive), overnight (16-20 hour) incubation, read-out: MIC) is 1 µg/mL (≈ 0.69 µM).
Turning to Gentamicin [reference compound], the MIC in assay [1] (Klebsiella pneumoniae KP4631 (multi-resistant), overnight (16-20 hour) incubation) lay within 1 to 2 µg/mL.
